This is an account of results in patent US7214668B2, “Phosphonic acid based prodrugs of PMEA and its analogues” (Metabasis Therapeutics, Inc., priority 2002, dated 2007).

Data set [1] in a line: Plasma and urine PMEA following oral Compound 4 and bis POM PMEA in rats. Conditions: 30 mg/kg PMEA equivalents p.o. It counts as in vivo, rat. On the procedure:
PMEA levels (0–12 h) were quantified in plasma by fluorescence HPLC following chloroacetaldehyde derivatization. PMEA levels in urine were quantified 48 hours after treatment.
Plasma drug levels: PMEA was determined in plasma by a modification of the procedure described in the literature (Shaw J P, Louie M S, Krishnamurthy V V, Arimilli M N, Jones R J, Bidgood A M, Lee W A, & Cundy K C, Drug Metabolism and Disposition, 25:362–366 (1997)). Plasma (100 μL) samples were extracted with 2 volumes of 0.1% TFA in acetonitrile. Following centrifugation to remove the precipitate, the supernatant was evaporated to dryness. The dried plasma was reconstituted with 200 μL of the derivatization cocktail consisting of 0.34% chloroacetaldehyde in 100 mM sodium acetate pH 4.5 and incubated at 95° C. for 40 min. The samples were evaporated to dryness and reconstituted with mobile phase for analysis by HPLC. The derivatized PMEA was analyzed by an HPLC system (Hewlett Packard 1090) consisting of a Beckman Ultrasphere ODS 4.6×150 mm (5 μm) column developed with a 20-min gradient of 0–30% acetonitrile in 20 mM potassium phosphate pH 6.2. Fluorescence was monitored at an excitation and emission wavelength of 240 and 420 nm, respectively. The column temperature was 40° C. and the flow rate was 1.5 mL/min. The derivatized PMEA was detected and quantified by comparison to an authentic standard prepared in plasma and eluted at approximately 6 minutes. The limit of quantitation of PMEA, was 0.25 μg/mL.
Urinary excretion studies: The percent excretion of PMEA in urine was assessed by a modification of a previously described procedure (Russell J W, Marrero D, Whiterock V J, & Klunk L J, J Chromatog, 572:321–326 (1991)). Aliquots (0.25–0.5 mL) of urine samples and spiked standards were incubated with an equal volume of 17% (v/v) of 50% chloroacetaldehyde in 100 mM sodium acetate pH 4.5 at 50° C. for 4 hrs. Following centrifugation, the supernatant was analyzed by the HPLC method described in the previous section.

How the values of data set [2] were obtained: Intact prodrug and the metabolite 9-[2-(phosophonomethoxy)ethyl]adenine (PMEA) and the respective mono-acids were measured in the plasma at 0 (predose), 0.33, 1, 3, 5, 8, and 12 hrs post dose by HPLC using fluorescence detection. The pharmacokinetic parameters were calculated based on noncompartmental analysis of the concentration-time profile.
Data set [3] has as its system liver microsomes isolated from rats induced with dexamethasone. Put plainly: In vitro activation of PMEA prodrug analogues to PMEA by rat liver microsomes. The following applies: 1 mg/mL microsomes, 2 mM NADPH, 5 minutes, 37° C., PMEA formation. On the procedure:
PMEA prodrug analogues were tested for activation to PMEA in reactions catalyzed by the microsomal fraction of rat liver.
Prodrugs (25 and 250 μM) were tested for activation by liver microsomes isolated from rats induced with dexamethasone to enhance CYP3A4 activity (Human Biologics Inc., Phoenix Ariz.). Reactions were conducted in 0.1 M KH2PO4, pH 7.4, in the presence of 2 mM NADPH and liver microsomes (1 mg/mL). Reaction mixtures were incubated for 5 minutes in an Eppendorf Thermomixer 5436 (37° C., speed 6). Reactions were terminated by the addition of 1.5 volumes of methanol. The resulting extracts were clarified by centrifugation at 14,000 rpm in an Eppendorf microfuge (20 minutes). The supernatants (200 μL) were evaporated under vacuum and heat to dryness before resuspending in 80 μL of buffer A (see below) for PMEA analysis. Spiked standards of 9-[2-(phosophonomethoxy)ethyl]adenine, (PMEA, lot 980397, Metabasis Therapeutics) were prepared in the same reaction mixture and processed in an identical fashion. After resuspension, samples were analyzed by reverse phase HPLC (Altima C-18 column) with use of an ion-pairing buffer (Buffer A) consisting of 10 mM ammonium phosphate, 2.5 mM octyltriethylammonium phosphate, pH 5.5. Samples were loaded in Buffer A and eluted with a methanol gradient from 40% to 80% over 20 minutes. Detection was at 265 nm.

On to `Nc1ncnc2c1ncn2CCOCP1(=O)OCCC(c2cccc(Cl)c2)O1` (racemic) [Compound 4], for which the “AUC0-12h of PMEA in plasma” value in data set [1] (fasted rats) came out at 3.5 µM·h. Besides, in data set [1] (rats), the “Fold lower plasma PMEA AUC0-12h than following bis POM PMEA” value worked out at 6 fold, the “Fold lower plasma PMEA Cmax than following bis POM PMEA” value is listed as 13 fold and the “Fold lower urinary levels of PMEA than following bis POM PMEA” value is on record as 5 fold. In data set [1] (rats, urine 48 hours after treatment), the “Urinary levels of PMEA” value is given as 4.1 % dose. Besides, the “Plasma half-life of breakdown product 9-{2-[1-{(3-chlorophenyl)-1-propyl-3-hydroxy}phosphonomethoxy]ethyl}adenine” value in data set [2] (after 30 mg/kg PMEA equivalents p.o. of prodrug, rats) was ~2.1 h. In data set [2] (rat, in vivo), the “Intact prodrug in plasma” value is listed as “observed in plasma”. The “Activation Rate, Dex. Rat Liver Microsomes, 25 μM” value in data set [3] (25 μM prodrug) is listed as 6.2 nmol/min/mg. For the same compound, the “Activation Rate, Dex. Rat Liver Microsomes, 250 μM” value in data set [3] (250 μM prodrug) worked out at 10.9 nmol/min/mg.
